Each structure is given as a SMILES string.

The target of the experiment is Delta-type opioid receptor (Homo sapiens, UniProt P41143). The experiment is described as follows: Displacement of [125I]deltorphin 2 from human recombinant delta opioid receptor expressed in HEK293 cells. The format is cell-based. A general note: Displacement assays read how much labelled ligand stays bound in the presence of the test substance.
Delta-type opioid receptor, sequence (P41143 whole entry): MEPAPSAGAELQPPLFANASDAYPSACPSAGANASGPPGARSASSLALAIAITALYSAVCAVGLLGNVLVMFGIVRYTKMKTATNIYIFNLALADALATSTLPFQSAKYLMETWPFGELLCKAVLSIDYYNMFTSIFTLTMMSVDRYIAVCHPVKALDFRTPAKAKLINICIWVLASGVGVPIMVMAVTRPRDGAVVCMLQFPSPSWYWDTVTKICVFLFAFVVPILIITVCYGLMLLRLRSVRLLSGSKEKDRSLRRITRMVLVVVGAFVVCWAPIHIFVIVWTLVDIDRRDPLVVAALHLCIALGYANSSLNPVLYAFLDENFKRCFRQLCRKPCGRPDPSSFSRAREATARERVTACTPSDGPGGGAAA
With `C[C@H]1CC=CC2=C1C(=O)[C@@H]1[C@@H](CCN3CCC[C@@H]13)O2`, the IC50 (as a rule, the concentration at which inhibition is half-maximal) came out at 9.9 µM.
Then `C[C@H]1CC=CC(=O)[C@@H]1C(=O)C1=CCCN2CCC[C@@H]12` [GRANDISINE D], with 1.65 µM; and `C[C@H]1C[C@H](N)CC2=C1C(=O)[C@@H]1[C@@H](CCN3CCC[C@@H]13)O2` [GRANDISINE F], with 1.55 µM.
Take `COC(=O)C[C@@H]1C[C@H](C)CC(C2=CCCN3CCCC23)=N1` (stereo not given in full) [GRANDISINE G]: the IC50 turned out to be 75.4 µM.
As to `C[C@H]1C[C@H](O)CC2=C1C(=O)[C@@H]1[C@@H](CCN3CCC[C@@H]13)O2` [GRANDISINE C], the IC50 turned out to be 14.6 µM.

Values taken from ChEMBL document CHEMBL1158055, “Grandisines C-G, indolizidine alkaloids from the Australian rainforest tree Elaeocarpus grandis” (J Nat Prod, 2006).
